We go through 13 molecules from ChEMBL document CHEMBL1201862, “PubChem BioAssay data set” (2004).

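These data come from cells grown in 96-well plates and exposed to compound for 48 hours at five concentrations. GI50 is the concentration that inhibits growth by half.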 Active and inactive are the calls of the source. No stated cut-off is given here; in the data, active = GI50 up to about 1.1 µM and inactive = higher.

Among the test systems are NCI-H460; MOLT-4; HCT-15; T47D; SK-OV-3; RXF 393; PC-3; SK-MEL-2; MCF7; OVCAR-5; A498; TK-10; HCT-116; SF-268; UO-31; OVCAR-8; CCRF-CEM; HOP-92; Malme-3M; Hs-578T.
Common to all, as to assay: NCI-60 cell line screen, 48 h

`Cc1cc(Cc2cc(C)c(N)cc2N)c(N)cc1N`: the GI50 is 77.3 µM (inactive) in the assay with NCI-H460; 33.3 µM (inactive) in the assay on MOLT-4; over 100 µM in the assay on HCT-15; > 100 µM (inactive) in the assay with T47D; > 100 µM (inactive) in the assay with SK-OV-3; > 100 µM (inactive) with RXF 393. The GI50 with PC-3, in the assay with SK-MEL-2, with MCF7, with OVCAR-5, with A498 and with TK-10 was > 100 µM (inactive) in each case. In addition, the GI50 was > 100 µM (inactive) with HCT-116, 89.3 µM (inactive) in the assay on SF-268, > 100 µM (inactive) in the assay with UO-31 and 94.4 µM (inactive) in the assay with OVCAR-8.

As for `CN(C(=O)C1=CCC2(CC1)OCCO2)c1ccccc1OS(=O)(=O)C(F)(F)F`, the GI50 with NCI-H460 was 85.3 µM (inactive); in the assay with MOLT-4, > 100 µM (inactive); in the assay with HCT-15 it was 59 µM; in the assay on T47D it was > 100 µM (inactive); in the assay on SK-OV-3 it was > 100 µM (inactive); in the assay on RXF 393, > 100 µM (inactive). In addition, the GI50 in the assay with PC-3 was > 100 µM (inactive); with CCRF-CEM, 43.2 µM (inactive); in the assay with HOP-92, > 100 µM (inactive); in the assay with SK-MEL-2, > 100 µM (inactive); in the assay with MCF7, > 100 µM (inactive); in the assay with OVCAR-5, > 100 µM (inactive). For the same molecule, the GI50 in the assay on A498 is > 100 µM (inactive); in the assay on HCT-116 it was > 100 µM (inactive); with SF-268, 8.26 µM (inactive); in the assay with UO-31 it was > 100 µM (inactive); in the assay on OVCAR-8, 81.5 µM (inactive).

Regarding `CC(C)OC(=O)/C=C/C(=O)O/C=C/[N+](=O)[O-]`, the GI50 was 60.7 µM (inactive) with NCI-H460; 15.9 µM (inactive) in the assay with MOLT-4; 35 µM in the assay on HCT-15; 12.7 µM (inactive) in the assay on T47D; 66.8 µM (inactive) with SK-OV-3; 18.3 µM (inactive) in the assay with RXF 393. Further, the GI50 was 26.6 µM (inactive) with PC-3; 20.2 µM (inactive) in the assay on SK-MEL-2; 23 µM (inactive) in the assay with MCF7; 37.6 µM (inactive) in the assay on OVCAR-5; 14.1 µM (inactive) in the assay with A498; 32.6 µM (inactive) in the assay with TK-10. The GI50 in the assay on HCT-116 was 17.7 µM (inactive); in the assay on Malme-3M, 29.6 µM (inactive); with SF-268, 24.5 µM (inactive); with UO-31, 36.1 µM (inactive); in the assay on OVCAR-8, 15.7 µM (inactive).

In the case of `O=C(Nc1cccc(NC(=O)c2cc(=O)c3ccccc3o2)n1)c1cc(=O)c2ccccc2o1`, the GI50 in the assay on NCI-H460 is 40.4 µM (inactive); with MOLT-4 it was 49.4 µM (inactive); with HCT-15 it was 4.06 µM; in the assay on SK-OV-3, > 100 µM (inactive); in the assay on RXF 393, 20.8 µM (inactive); in the assay on CCRF-CEM, 42.2 µM (inactive). Also, the GI50 with HOP-92 is 17.3 µM (inactive); in the assay on SK-MEL-2, > 100 µM (inactive); in the assay on OVCAR-5 it was > 100 µM (inactive); with A498, 75.5 µM (inactive); in the assay with TK-10 it was > 100 µM (inactive); in the assay on HCT-116, 27.1 µM (inactive). The GI50 is > 100 µM (inactive) in the assay on Malme-3M, 13.5 µM (inactive) in the assay on SF-268, 10.4 µM (inactive) in the assay on UO-31 and > 100 µM (inactive) with OVCAR-8.

Turning to `O=C(CCc1nnc2s/c(=C\c3ccc([N+](=O)[O-])cc3)c(=O)n12)Nc1ccc(Cl)c(Cl)c1`, the GI50 in the assay with NCI-H460 is 46.1 µM (inactive); in the assay with MOLT-4, 25.1 µM (inactive); in the assay on HCT-15, 24.7 µM; in the assay on SK-OV-3, 38.5 µM (inactive); in the assay on RXF 393 it was 18.2 µM (inactive); in the assay with CCRF-CEM it was 20.2 µM (inactive). The GI50 is 38.6 µM (inactive) in the assay with HOP-92; 27.7 µM (inactive) in the assay on SK-MEL-2; 36.2 µM (inactive) with OVCAR-5; 85.3 µM (inactive) with A498; 34 µM (inactive) in the assay with TK-10; 32.1 µM (inactive) in the assay with HCT-116. Further, the GI50 in the assay on Malme-3M is 29.4 µM (inactive); in the assay on SF-268, 18.5 µM (inactive); in the assay with UO-31, 41.5 µM (inactive); with OVCAR-8, 20.1 µM (inactive).

With `COc1cc(/C=C/C(=O)OC[C@H](Br)[C@H](OC(C)=O)c2ccc3c(c2)OCO3)cc(OC)c1OC`, the GI50 in the assay with MOLT-4 is 7.69 µM (inactive); in the assay on HCT-15, over 100 µM; in the assay with T47D it was 52.5 µM (inactive); in the assay with SK-OV-3 it was > 100 µM (inactive); in the assay on RXF 393, > 100 µM (inactive); in the assay with PC-3, 86.3 µM (inactive). In addition, the GI50 in the assay with CCRF-CEM, with HOP-92, with SK-MEL-2, in the assay with MCF7, with OVCAR-5 and with A498 was > 100 µM (inactive) in each case. The GI50 with TK-10 was > 100 µM (inactive); in the assay with HCT-116, > 100 µM (inactive); in the assay with Malme-3M, > 100 µM (inactive); in the assay with SF-268, > 100 µM (inactive); in the assay on UO-31 it was 26 µM (inactive); in the assay with OVCAR-8, > 100 µM (inactive).

In the case of `CC(C)[Si](OC1=C(C(=O)N(C)c2ccccc2Cl)CCC1)(C(C)C)C(C)C`, the GI50 with NCI-H460 is 22.4 µM (inactive); in the assay on MOLT-4 it was 30.3 µM (inactive); with HCT-15 it was 16.5 µM; in the assay with T47D, 19.7 µM (inactive); in the assay on SK-OV-3, 16.5 µM (inactive); in the assay on RXF 393, 18.3 µM (inactive). Besides, the GI50 was 18.3 µM (inactive) in the assay on HOP-92; 9.64 µM (inactive) with OVCAR-5; 15.6 µM (inactive) in the assay with A498; 17.8 µM (inactive) in the assay with TK-10; 19.5 µM (inactive) in the assay on HCT-116; 19.1 µM (inactive) in the assay on Malme-3M. Besides, the GI50 in the assay on SF-268 is 18.5 µM (inactive); in the assay with UO-31 it was 15.8 µM (inactive); in the assay on OVCAR-8, 17 µM (inactive).

As to `C#CCN(C)C(=O)N(CC#C)N=O`, the GI50 is > 100 µM (inactive) in the assay with NCI-H460; > 100 µM (inactive) in the assay on MOLT-4; over 100 µM in the assay on HCT-15; > 100 µM (inactive) in the assay on SK-OV-3; > 100 µM (inactive) in the assay on RXF 393; > 100 µM (inactive) with CCRF-CEM. Also, the GI50 was > 100 µM (inactive) with HOP-92; > 100 µM (inactive) in the assay on SK-MEL-2; 29.5 µM (inactive) with OVCAR-5; > 100 µM (inactive) in the assay with A498; > 100 µM (inactive) in the assay on TK-10; > 100 µM (inactive) in the assay with HCT-116. The GI50 in the assay with Malme-3M, with SF-268, in the assay with UO-31 and in the assay with OVCAR-8 was > 100 µM (inactive) throughout.

With `Cc1ccc(/N=N/C(=O)NNc2ccc(C)cc2Br)c(Br)c1`, the GI50 with NCI-H460 is 17.3 µM (inactive); with MOLT-4, 10.4 µM (inactive); in the assay on HCT-15, 20 µM; in the assay on T47D it was 17.8 µM (inactive); in the assay with PC-3 it was 11.9 µM (inactive); in the assay on CCRF-CEM, 2.58 µM (inactive). Further, the GI50 with SK-MEL-2 is 16.1 µM (inactive); in the assay on MCF7, 21.8 µM (inactive); with OVCAR-5, 19.4 µM (inactive); with A498 it was 26.9 µM (inactive); in the assay on TK-10 it was 31.1 µM (inactive); with HCT-116, 10.9 µM (inactive). Further, the GI50 with Malme-3M was 19.6 µM (inactive); in the assay on SF-268, 25.8 µM (inactive); in the assay with UO-31, 16 µM (inactive); in the assay on OVCAR-8, 20.5 µM (inactive).

With `O=C(c1ccccc1)C(c1ccccc1)C1(O)C(=O)Nc2ccccc21` (configuration not stated), the GI50 in the assay on NCI-H460 was > 100 µM (inactive); in the assay on MOLT-4, > 100 µM (inactive); with HCT-15, over 100 µM; in the assay on SK-OV-3, > 100 µM (inactive); in the assay on RXF 393, > 100 µM (inactive); in the assay on CCRF-CEM, > 100 µM (inactive). Also, the GI50 with HOP-92, in the assay with SK-MEL-2, in the assay on OVCAR-5, in the assay on A498, with TK-10 and in the assay with HCT-116 was > 100 µM (inactive) in each case. Moreover, the GI50 is > 100 µM (inactive) in the assay with Malme-3M, > 100 µM (inactive) in the assay on SF-268, 44.4 µM (inactive) in the assay on UO-31 and > 100 µM (inactive) in the assay on OVCAR-8.

For the molecule `C=Cc1nc2nnc(CCCCCCCCc3nnc4nc(C=C)[nH]n34)n2[nH]1`, the GI50 was 57.8 µM (inactive) in the assay with NCI-H460; 47.4 µM (inactive) in the assay with MOLT-4; over 100 µM with HCT-15; > 100 µM (inactive) with SK-OV-3; > 100 µM (inactive) in the assay with RXF 393; > 100 µM (inactive) in the assay with PC-3. For the same molecule, the GI50 in the assay on CCRF-CEM is > 100 µM (inactive); in the assay on SK-MEL-2 it was > 100 µM (inactive); in the assay on MCF7, 80.7 µM (inactive); in the assay on OVCAR-5, > 100 µM (inactive); in the assay on A498, 40.7 µM (inactive); in the assay with TK-10, > 100 µM (inactive). For the same molecule, the GI50 in the assay with HCT-116 was 47.2 µM (inactive); in the assay on Malme-3M it was 58.7 µM (inactive); with SF-268, > 100 µM (inactive); with UO-31, > 100 µM (inactive); with OVCAR-8, 83.8 µM (inactive).

As to `Nc1ccc(-c2nc3ccc(F)cc3s2)cc1`, the GI50 in the assay on MOLT-4 was > 100 µM (inactive); in the assay on HCT-15, 35.8 µM; in the assay with PC-3, 17.2 µM (inactive); in the assay with CCRF-CEM, 19.1 µM (inactive); with Hs-578T it was 20.2 µM (inactive); in the assay on HOP-92 it was 29.4 µM (inactive). Moreover, the GI50 in the assay with SK-MEL-2 was 19.8 µM (inactive); in the assay on A498 it was 30 µM (inactive); in the assay on TK-10, 26.6 µM (inactive); in the assay with HCT-116 it was 36.6 µM (inactive); with Malme-3M, 51.8 µM (inactive); in the assay on SF-268, 37.3 µM (inactive). The GI50 with UO-31 was 26 µM (inactive); in the assay on OVCAR-8 it was 48.3 µM (inactive).

On to `CCC(=O)OC1=C(c2ccccc2)Sc2ccc(Cl)cc2-n2cccc21`, for which the GI50 is 7.71 µM (inactive) in the assay with MOLT-4; 4.69 µM in the assay on HCT-15; > 10 µM (inactive) in the assay with T47D; > 10 µM (inactive) with SK-OV-3; 3.24 µM (inactive) with RXF 393; > 10 µM (inactive) in the assay on PC-3. Further, the GI50 with CCRF-CEM was 8.89 µM (inactive); in the assay with HOP-92, 5.78 µM (inactive); in the assay on MCF7, 7.21 µM (inactive); in the assay with TK-10, > 10 µM (inactive); with Malme-3M, > 10 µM (inactive); with SF-268, > 10 µM (inactive). For the same molecule, the GI50 with OVCAR-8 was > 10 µM (inactive).
